Like-named read-outs stand apart in the source and are kept apart here.
Columns and labels:
Type in all cases: cell-based
HIV-1 HBX2 (wild type) = assay: High throughput cytopathic effect assay in MT-4 cells, wild type HIV-1
Text: (§1) Compounds were screened in a miniaturized, high throughput cytopathic effect assay for activity against HIV-1 HBX2 (wild type) and HIV-1 reverse transcriptase mutants K103N and Y181C. In Tables 1 and 2 below. “w.t.” refers to results of the tested compounds run with the wildtype 1 and “w.t, assay 2” refers results of the tested compounds run with the wildtype on the same day as the testing of the compounds with the mutants. Thus, “w.t, assay 2” was run under the same conditions as the testing of the compounds with the mutants and provides a direct comparison with the results from the testing with the mutants.
(§2) Ten-point serial dilutions of compounds with half-log step size were generated in DMSO. AZT ([…]) was used as the positive control and DMSO as the negative control. The Echo acoustic dispenser was used to deliver 200 nL of serially diluted compound into sterile 384 well tissue culture assay plates. Two million MT-4 cells were incubated with each of the 3 viruses at MOI of 0.0005 in separate 1 mL infection tubes for 1 hour at 37° C. The cells were diluted in cell culture medium (RPMI+10% FBS) to 50.000 cells/mL. The infected cells were added to 384 well assay plates containing serially dilute compounds. Assay plates were incubated for 5 days in a humidified incubator set at 37° C. and 5% CO2. To measure the cytopathic effect of HIV, 40 μL Cell TiterGlo was added to each well and the resulting luminescence signal is read with the Envision plate reader (Perkin Elmer). Data were normalized to positive and negative controls in each plate and expressed as % CPE Protection. EC50 values were defined as the compound concentration that caused a 50% decrease in luminescence signal, and were calculated by non-linear regression using Pipeline Pilot software by applying a four parameter fit equation (Accelrys, San Diego, Calif.).

[1] = tested on: HIV-1 reverse transcriptase mutant K103N; assay: High throughput cytopathic effect assay in MT-4 cells, K103N mutant; conditions: for EC50: Human immunodeficiency virus 1, MT4, 120 h, read-out: MT4 EC50 (nM) against K103N; for FC against mutant K103N: fold change of MT4 EC50 versus w.t. assay 2
Text: as §1, §2

[2] = tested on: HIV-1 reverse transcriptase mutant Y181C; assay: High throughput cytopathic effect assay in MT-4 cells, Y181C mutant; conditions: for EC50: Human immunodeficiency virus 1, MT4, 120 h, read-out: MT4 EC50 (nM) against Y181C; for FC against mutant Y181C: fold change of MT4 EC50 versus w.t. assay 2
Text: as §1, §2

[3] = Human immunodeficiency virus 1, MT4, 120 h, MT-4 cells, 5 days, cytopathic effect, Cell TiterGlo, read-out: MT4 EC50 (nM) against w.t.
[4] = Human immunodeficiency virus 1, MT4, read-out: MT4 EC50 (nM) against w.t. assay 2

Row | SMILES | EC50 (HIV-1 HBX2 (wild type); [3]) [nM] | EC50 (HIV-1 HBX2 (wild type); [4]) [nM] | EC50 [1] [nM] | FC against mutant K103N [1] | EC50 [2] [nM] | FC against mutant Y181C [2]
1 | Cc1cc(/C=C/C#N)cc(C)c1-c1cc(F)cc2c(N)nc(Nc3cnc(C#N)cn3)nc12 [Compound 26, (E)-5-((4-Amino-8-(4-(2-cyanovinyl)-2,6-dimethylphenyl)-6-fluoroquinazolin-2-yl)amino)pyrazine-2-carbonitrile] | 2.7 | 2 | 2.4 | 1.2 | 27.2 | 13.5
2 | Cc1cc(/C=C/C#N)cc(C)c1-c1cc(F)cc2c(N)nc(Nc3ccc(C#N)nn3)nc12 [Compound 27, (E)-6-((4-Amino-8-(4-(2-cyanovinyl)-2,6-dimethylphenyl)-6-fluoroquinazolin-2-yl)amino)pyridazine-3-carbonitrile] | 6.3 | 3.8 | 5.3 | 1.4 | 400 | 105.9
3 | Cc1cc(Nc2nc(N)c3cccc(-c4c(C)cc(/C=C/C#N)cc4C)c3n2)ncc1C#N [Compound 18, (E)-6-((4-Amino-8-(4-(2-cyanovinyl)-2,6-dimethylphenyl)quinazolin-2-yl)amino)-4-methylnicotinonitrile] | 21.9 | 13.1 | 12.1 | 0.9 | 112 | 8.6
4 | Cc1cc(/C=C/C#N)cc(C)c1-c1cc([N+](=O)[O-])cc2c(N)nc(Nc3ccc(C#N)cn3)nc12 [Compound 22, (E)-6-((4-Amino-8-(4-(2-cyanovinyl)-2,6-dimethylphenyl)-6-nitroquinazolin-2-yl)amino)nicotinonitrile] | 69.3 | 87.5 | 101 | 1.2 | > 500 | >5.7
5 | Cc1cc(/C=C/C#N)cc(C)c1-c1cccc2c(=O)[nH]c(Nc3ccc(C#N)cc3)nc12 [Compound 41, (E)-4-((8-(4-(2-Cyanovinyl)-2,6-dimethylphenyl)-4-oxo-3,4-dihydroquinazolin-2-yl)amino)benzonitrile] | 6.3 | 9.5 | 15.7 | 1.6 | 32.8 | 3.4
6 | Cc1cc(/C=C/C#N)cc(C)c1-c1cccc2c(N)nc(Nc3ccc(C#N)c(C)n3)nc12 [Compound 16, (E)-6-((4-Amino-8-(4-(2-cyanovinyl)-2,6-dimethylphenyl)quinazolin-2-yl)amino)-2-methylnicotinonitrile] | 6.3 | 7.5 | 12.5 | 1.7 | 42.6 | 5.7
7 | CNc1nc(Nc2ccc(C#N)cc2)nc2c(-c3c(C)cc(/C=C/C#N)cc3C)cccc12 [Compound 30, (E)-4-((8-(4-(2-Cyanovinyl)-2,6-dimethylphenyl)-4-(methylamino)quinazolin-2-yl)amino)benzonitrile] | 15.9 | 13 | 17 | 1.3 | 55.6 | 4.3
8 | Cc1cc(/C=C/C#N)cc(C)c1-c1cc(Br)cc2c(N)nc(Nc3ccc(C#N)cc3)nc12 [Compound 25, (E)-4-((4-Amino-6-bromo-8-(4-(2-cyanovinyl)-2,6-dimethylphenyl)quinazolin-2-yl)amino)benzonitrile] | 39.1 | 28.3 | 44.1 | 1.6 | 160 | 5.6
9 | Cc1cc(/C=C/C#N)cc(C)c1-c1cccc2c(NCC3CC3)nc(Nc3ccc(C#N)cc3)nc12 [Compound 6, (E)-4-((8-(4-(2-Cyanovinyl)-2,6-dimethylphenyl)-4-((cyclopropylmethyl)amino)quinazolin-2-yl)amino)benzonitrile] | 99.3 | 82.6 | 81.1 | 1.0 | 470 | 5.7
10 | N#C/C=C/c1cc(F)c(-c2cccc3c(N)nc(Nc4ccc(C#N)cc4)nc23)c(F)c1 [Compound 8, (E)-4-((4-Amino-8-(4-(2-cyanovinyl)-2,6-difluorophenyl)quinazolin-2-yl)amino)benzonitrile] | 2.7 | 2.8 | 3.7 | 1.3 | 21.7 | 7.8
11 | COc1cc(/C=C/C#N)cc(OC)c1-c1cccc2cnc(Nc3ccc(C#N)cc3)nc12 [Compound 33, (E)-44-((8-(4-(2-Cyanovinyl)-2,6-dimethoxyphenyl)quinazolin-2-yl)amino)benzonitrile] | 2.1 | 1.5 | 3.2 | 2.1 | 12.3 | 7.9
12 | CC(C#N)=Cc1cc(C)c(-c2cccc3c(N)nc(Nc4ccc(C#N)cc4)nc23)c(C)c1 (racemic) [Compound 40, 4-((4-Amino-8-(4-(2-cyanoprop-1-en-1-yl)-2,6-dimethylphenyl)quinazolin-2-yl)amino)benzonitrile] | 6.8 | 9.9 | 16.3 | 1.7 | 36.1 | 3.7
13 | CCCCNc1nc(Nc2ccc(C#N)cc2)nc2c(-c3c(C)cc(/C=C/C#N)cc3C)cccc12 [Compound 7, (E)-4-((4-(Butylamino)-8-(4-(2-cyanovinyl)-2,6-dimethylphenyl)quinazolin-2-yl)amino)benzonitrile] | 122 | 117 | 130 | 1.1 | > 500 | >4.3
14 | Cc1cc(/C=C/C#N)cc(C)c1-c1cc(N)cc2c(N)nc(Nc3ccc(C#N)cn3)nc12 [Compound 23, (E)-6-((4,6-Diamino-8-(4-(2-cyanovinyl)-2,6-dimethylphenyl)quinazolin-2-yl)amino)nicotinonitrile] | 8.7 |  |  |  |  | 
15 | COc1cc(/C=C/C#N)cc(OC)c1-c1cccc2c(N)nc(Nc3ccc(C#N)cc3)nc12 [Compound 32, (E)-4-((4-Amino-8-(4-(2-cyanovinyl)-2,6-dimethoxyphenyl)quinazolin-2-yl)amino)benzonitrile] | 1.9 | 1.3 | 11.5 | 1.2 | 10.5 | 8.3
16 | CCc1cc(/C=C/C#N)cc(CC)c1-c1cccc2c(N)nc(Nc3ccc(C#N)cn3)nc12 [Compound 36, (E)-6-((4-Amino-8-(4-(2-cyanovinyl)-2,6-diethylphenyl)quinazolin-2-yl)amino)nicotinonitrile] | 7.7 | 10.5 | 10.1 | 1.0 | 87.3 | 8.3
17 | COc1ccc(-c2c(C)cc(/C=C/C#N)cc2C)c2nc(Nc3ccc(C#N)cn3)nc(N)c12 [Compound 29, (E)-6-((4-Amino-8-(4-(2-cyanovinyl)-2,6-dimethylphenyl)-5-methoxyquinazolin-2-yl)amino)nicotinonitrile] | 22.1 | 18.6 | 33.4 | 1.8 | > 500 | >26.9
18 | Cc1cc(/C=C/C#N)cc(C)c1-c1cc(F)cc2c(N)nc(Nc3ccc(C#N)cn3)nc12 [Compound 20, (E)-6-((4-Amino-8-(4-(2-cyanovinyl)-2,6-dimethylphenyl)-6-fluoroquinazolin-2-yl)amino)nicotinonitrile] | 7 | 6.6 | 7.1 | 1.1 | 69.9 | 10.5
19 | Cc1cc(-c2c(C)cc(/C=C/C#N)cc2C)c2nc(Nc3ccc(C#N)cn3)nc(N)c2c1 [Compound 21, (E)-6-((4-Amino-8-(4-(2-cyanovinyl)-2,6-dimethylphenyl)-6-methylquinazolin-2-yl)amino)nicotinonitrile] | 10.1 | 10.6 | 10.8 | 1.0 | 187 | 17.6
20 | CCc1cc(/C=C/C#N)cc(CC)c1-c1cccc2c(N)nc(Nc3ccc(C#N)cc3)nc12 [Compound 35, (E)-4-((4-Amino-8-(4-(2-cyanovinyl)-2,6-diethylphenyl)quinazolin-2-yl)amino)benzonitrile] | 12.8 | 16.8 | 16.9 | 1.0 | 38.6 | 2.3
